Starred links: 1 amine or outer side, 2 acyl side, 3 side chain; linkers in the order of their positions; H or OH if unused. Positions of bridges follow the written chain, without caps; N, C: chain ends. Non-standard residues stand in square brackets, D forms with d. Residues, ends and D or L forms follow the SMILES beside them. Triazole bridges read from a SMILES are 1,4-linked. Phe(3-CH2NH2) = O=C([C@H](Cc1cccc(CN[*:3])c1)N[*:1])[*:2]; X25 = O=C([C@H](Cc1cccc(OCC=[*:3])c1)N[*:1])[*:2]; X26 = O=C([C@@H]1[C@@H](OCC=[*:3])CCN1[*:1])[*:2]; Phe(4-COOH) = N[C@@H](Cc1ccc(C(=O)O)cc1)C(=O)O; Trp(5-F) = N[C@@H](Cc1c[nH]c2ccc(F)cc12)C(=O)O; Trp(6-F) = N[C@@H](Cc1c[nH]c2cc(F)ccc12)C(=O)O; Trp(7-aza) = N[C@@H](Cc1c[nH]c2ncccc12)C(=O)O; Asp(3,3-Me2) = CC(C)(C(=O)O)[C@H](N)C(=O)O; mXylylene(5-F) = Fc1cc(C[*:1])cc(C[*:2])c1; X4 = O=C(CCSCc1cccc(CSCCN[*:1])c1)[*:2]; Orn(N3) = [N-]=[N+]=NCCC[C@H](N)C(=O)O; X23 = CC[C@@]1(C(=O)[*:2])CCCN1[*:1]; mXylylene = c1cc(C[*:1])cc(C[*:2])c1; d(aThr) = C[C@@H](O)[C@@H](N)C(=O)O; X7 = O=C(Cc1ccc(CN[*:1])cc1)[*:2]; β3hT = C[C@@H](O)[C@H](N)CC(=O)O; X22 = Oc1cc(C[*:1])cc(C[*:2])c1; αMeP = C[C@@]1(C(=O)O)CCCN1; dPra = C#CC[C@@H](N)C(=O)O; Orn = NCCC[C@H](N)C(=O)O; X2 = O=C(C[*:2])[*:1]; Mpa = O=C(O)CCS
Experiments:
[1] = molecular target: human PCSK9 / human LDLR EGFa domain interaction (Homo sapiens (Human), UniProt Q8NBP7); assay: TR-FRET assay of inhibition of the PCSK9-LDLR protein-protein interaction; format: binding; details: TR-FRET, 20 nM human PCSK9, 20 nM human LDLR EGFa domain, 2 hours room temperature; read-out: IC50
Chain of human PCSK9 / human LDLR EGFa domain interaction (Q8NBP7 153-692): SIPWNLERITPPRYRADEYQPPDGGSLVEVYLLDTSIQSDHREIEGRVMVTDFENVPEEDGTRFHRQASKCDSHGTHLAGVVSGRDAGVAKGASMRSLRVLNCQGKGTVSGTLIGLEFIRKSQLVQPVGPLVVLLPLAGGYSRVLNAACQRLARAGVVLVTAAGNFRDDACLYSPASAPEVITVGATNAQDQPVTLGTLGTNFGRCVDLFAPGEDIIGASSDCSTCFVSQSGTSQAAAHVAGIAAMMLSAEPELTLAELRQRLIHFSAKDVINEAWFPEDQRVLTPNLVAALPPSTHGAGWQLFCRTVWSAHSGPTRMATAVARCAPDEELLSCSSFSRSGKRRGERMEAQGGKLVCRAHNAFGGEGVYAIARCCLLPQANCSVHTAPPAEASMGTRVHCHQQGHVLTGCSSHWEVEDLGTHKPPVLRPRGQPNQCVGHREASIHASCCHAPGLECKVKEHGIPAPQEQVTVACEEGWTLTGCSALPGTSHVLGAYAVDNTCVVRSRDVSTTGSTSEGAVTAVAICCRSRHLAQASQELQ
Chain of human PCSK9 / human LDLR EGFa domain interaction (Q8NBP7 31-152 partner): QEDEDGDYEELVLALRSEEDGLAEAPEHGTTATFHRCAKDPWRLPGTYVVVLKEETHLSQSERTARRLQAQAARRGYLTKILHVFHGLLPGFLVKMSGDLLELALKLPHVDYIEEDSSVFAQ
Procedure, shortened: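 Half-maximal inhibition was derived by 4-parameter fitting of dose-response TR-FRET data. Each well held 20 nM His-LDLR EGFa, 20 nM avitag-biotinylated PCSK9, Eu-anti-6×His and Ulight-streptavidin (5 nM each) in 50 mM HEPES, 150 mM NaCl, 5 mM CaCl2, 0.01% BSA, 0.01% Surfactant P20, incubated 2 h at room temperature.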

PCSK9 = PCSK9 (Homo sapiens (Human), UniProt Q8NBP7); assay: PCSK9 Alexa FRET Standard assay (displacement of AlexaFluor647 tagged cyclic peptide Reagent A); format: binding; details: PCSK9 Alexa FRET Standard assay, 0.5 nM PCSK9, 20 nM AF cyclic peptide Reagent A; read-out: IC50
Chain of PCSK9 (Q8NBP7 153-692): as the sequence (Q8NBP7 153-692) above
Procedure, shortened: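 TR-FRET displacement: 0.5 nM biotinylated PCSK9 with 1.25 nM Strep-Eu and 20 nM AlexaFluor-tagged cyclic peptide (final) in 50 mM HEPES pH 7.4, 0.15 M NaCl, 5 mM CaCl2, 0.01% BSA, 0.01% P20, ≥2 h at room temperature. IC50 from sigmoidal fit, converted to Ki via peptide KD; falling Eu counts flagged false positives.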

Compound	IC50 [1] [nM]	IC50 (PCSK9) [nM]
COc1ccc(C[C@@H]2NC(=O)[C@H](Cc3cnc[nH]3)NC(=O)[C@H](CC(=O)O)NC(=O)[C@H](Cc3c[nH]c4cc(F)ccc34)NC(=O)[C@H](Cc3c[nH]c4ccc(F)cc34)NC(=O)[C@@H](C)NC(=O)[C@H](CCCCN)NC(=O)CCCc3cn(nn3)-c3ccc(cc3)C[C@@H](C(N)=O)NC(=O)[C@]3(C)CCCN3C2=O)cc1 [Compound 369]	0.1 to 100	100 to 1000
C[C@@]12CCCN1C(=O)[C@H](Cc1ccc(O)cc1)NC(=O)[C@H](Cc1c[nH]cn1)NC(=O)[C@H](CC(=O)O)NC(=O)[C@H](Cc1c[nH]c3ccc(F)cc13)NC(=O)[C@H](Cc1c[nH]c3ccc(F)cc13)NC(=O)CNC(=O)[C@H](CCCCN)NC(=O)CCSCc1cc(O)cc(c1)CSC[C@@H](C(N)=O)NC2=O [Compound 359] ([Mpa]KG[Trp(5-F)][Trp(5-F)]DHY[αMeP]C-NH2; linker 1-10 via X22)	0.1 to 100	100 to 1000
C[C@H]1NC(=O)[C@H](C(C)(C)C(=O)O)NC(=O)[C@H](Cc2c[nH]c3ccc(F)cc23)NC(=O)[C@H](Cc2c[nH]c3ccc(F)cc23)NC(=O)CNC(=O)[C@H](CCCCN)NC(=O)CCSCc2cccc(c2)CSC[C@@H](C(N)=O)NC(=O)[C@]2(C)CCCN2C(=O)[C@H](Cc2ccc(O)cc2)NC1=O [Compound 055] ([Mpa]KG[Trp(5-F)][Trp(5-F)][Asp(3,3-Me2)][dA]Y[αMeP]C-NH2; linker 1-10 via mXylylene)	1000 to 12100	21000 to 50000
C[C@@]12CCCN1C(=O)[C@H](Cc1c[nH]c3ncccc13)NC(=O)[C@H](Cc1cnc[nH]1)NC(=O)[C@H](CC(=O)O)NC(=O)[C@H](Cc1c[nH]c3ccc(F)cc13)NC(=O)[C@H](Cc1c[nH]c3ccc(F)cc13)NC(=O)CNC(=O)[C@H](CCCCN)NC(=O)CCSCc1cccc(c1)CSC[C@@H](C(N)=O)NC2=O [Compound 360] ([Mpa]KG[Trp(5-F)][Trp(5-F)]DH[Trp(7-aza)][αMeP]C-NH2; linker 1-10 via mXylylene)	0.1 to 100	100 to 1000
C[C@H]1NC(=O)[C@H](CCCCN)NC(=O)CCSCc2cc(F)cc(c2)CSC[C@@H](C(N)=O)NC(=O)[C@]2(C)CCCN2C(=O)[C@H](Cc2ccc(O)cc2)NC(=O)[C@H]([C@@H](C)O)NC(=O)[C@@H]2CCCN2C(=O)[C@H](Cc2c[nH]c3ccc(F)cc23)NC(=O)[C@H](Cc2c[nH]c3ccc(F)cc23)NC1=O [Compound 042] ([Mpa]K[dA][Trp(5-F)][Trp(5-F)]PTY[αMeP]C-NH2; linker 1-10 via mXylylene(5-F))	21000 to 50000	1000 to 12100
COc1ccc(C[C@@H]2NC(=O)[C@H](Cc3cnc[nH]3)NC(=O)[C@H](CC(=O)O)NC(=O)[C@H](Cc3c[nH]c4ccc(F)cc34)NC(=O)[C@H](Cc3c[nH]c4ccc(F)cc34)NC(=O)[C@@H](C)NC(=O)Cc3ccc(cc3)CNC(=O)c3ccc(cc3)C[C@@H](C(N)=O)NC(=O)[C@]3(C)CCCN3C2=O)cc1 [Compound 391] ([X7][dA][Trp(5-F)][Trp(5-F)]DHY(Me)[αMeP][Phe(4-COOH)]-NH2; lactam N-9)	0.1 to 100	100 to 1000
CC(=O)N[C@H]1CCCNC(=O)COc2ccc(cc2)C[C@@H](C(N)=O)NC(=O)[C@]2(C)CCCN2C(=O)[C@H](Cc2ccc(O)cc2)NC(=O)[C@H](Cc2cnc[nH]2)NC(=O)[C@H](CC(=O)O)NC(=O)[C@H](Cc2c[nH]c3ccc(F)cc23)NC(=O)[C@H](Cc2c[nH]c3ccc(F)cc23)NC(=O)CNC(=O)[C@H](C)NC1=O [Compound 364] (Ac-[Orn]AG[Trp(5-F)][Trp(5-F)]DHY[αMeP]Y-NH2; linker 1-10 via X2)	100 to 1000	100 to 1000
COc1ccc(C[C@@H]2NC(=O)[C@H]([C@@H](C)O)NC(=O)[C@@H]3[C@@H]4CCN3C(=O)[C@H](Cc3c[nH]c5ccc(F)cc35)NC(=O)[C@H](Cc3cccc(c3)OC/C=C/CO4)NC(=O)[C@@H](C)NC(=O)[C@H](C)NC(=O)CCSCc3cccc(c3)CSCCNC(=O)[C@]3(C)CCCN3C2=O)cc1 [Compound 516] (cyclo(A[dA][X25][Trp(5-F)][X26]TY(Me)[αMeP][X4]); staple (E) 3-5)	0.1 to 100	0.11 to 100
NCCCC[C@@H]1NC(=O)CCSCc2cccc(c2)CSC[C@@H](C(N)=O)NC(=O)[C@@H]2CCCN2C(=O)[C@H](Cc2ccc(O)cc2)NC(=O)[C@H](Cc2c[nH]cn2)NC(=O)[C@H](CC(=O)O)NC(=O)[C@H](Cc2c[nH]c3ccc(F)cc23)NC(=O)[C@H](Cc2c[nH]c3ccc(F)cc23)NC(=O)CNC1=O [Compound 149] ([Mpa]KG[Trp(5-F)][Trp(5-F)]DHYPC-NH2; linker 1-10 via mXylylene)	1000 to 12100	1000 to 12100
CC(=O)N[C@H]1CCCNC(=O)c2ccc(cc2)C[C@@H](C(N)=O)NC(=O)[C@]2(C)CCCN2C(=O)[C@H](Cc2ccc(O)cc2)NC(=O)[C@H](Cc2cnc[nH]2)NC(=O)[C@H](CC(=O)O)NC(=O)[C@H](Cc2c[nH]c3cc(F)ccc23)NC(=O)[C@H](Cc2c[nH]c3ccc(F)cc23)NC(=O)CNC(=O)[C@H](C)NC1=O [Compound 314] (Ac-[Orn]AG[Trp(5-F)][Trp(6-F)]DHY[αMeP][Phe(4-COOH)]-NH2; lactam 1-10)	100 to 1000	1000 to 12100
COc1ccc(C[C@@H]2NC(=O)[C@@H]3CCC/C=C\CO[C@H]4C[C@@H](C(=O)N3)N(C4)C(=O)[C@H](Cc3c[nH]c4ccc(F)cc34)NC(=O)[C@H](Cc3c[nH]c4ccc(F)cc34)NC(=O)[C@@H](C)NC(=O)CCCCCC(=O)NCc3ccc(cc3)C[C@@H](C(N)=O)NC(=O)[C@]3(C)CCCN3C2=O)cc1 [Compound 512]	0.1 to 100	0.11 to 100
C[C@@H](O)[C@H]1CC(=O)N[C@@H](Cc2ccc(O)cc2)C(=O)N2CCC[C@@]2(C)C(=O)N[C@H](C(N)=O)CSCc2cccc(c2)CSCCC(=O)N[C@@H](CCCCN)C(=O)NCC(=O)N[C@@H](Cc2c[nH]c3ccc(F)cc23)C(=O)N[C@@H](Cc2c[nH]c3ccc(F)cc23)C(=O)N2CCC[C@H]2C(=O)N1 [Compound 051] ([Mpa]KG[Trp(5-F)][Trp(5-F)]P[β3hT]Y[αMeP]C-NH2; linker 1-10 via mXylylene)	0.1 to 100	0.11 to 100
CCCCCCCCCCCCCCCC(=O)N[C@@H](CCC(=O)NCCOCCOCC(=O)NCCOCCOCC(=O)NCCCC[C@H](NC(=O)CCOCCOCCOCCOCCOCCOCCOCCOCCNC(=O)CCOCCOCCOCCOCCOCCOCCOCCOCCOCCOCCOCCOCCNC(=O)[C@@H]1CSCc2cccc(c2)CSCCC(=O)N[C@@H](C)C(=O)N[C@H](C)C(=O)N[C@@H](Cc2c[nH]c3ccc(F)cc23)C(=O)N[C@@H](Cc2c[nH]c3ccc(F)cc23)C(=O)[C@@H]2C[C@H](F)CN2C(=O)N[C@@H]([C@@H](C)O)C(=O)N[C@@H](Cc2ccc(O)cc2)C(=O)N2CCC[C@@]2(C)C(=O)N1)C(N)=O)C(=O)O [Compound 133]	1000 to 12100	1000 to 12100
COc1ccc(C[C@@H]2NC(=O)[C@@H]([C@@H](C)O)NC(=O)[C@H](CC(=O)O)NC(=O)[C@H](Cc3c[nH]c4ccc(F)cc34)NC(=O)[C@H](Cc3cccc(CN)c3)NC(=O)[C@@H](C)NC(=O)[C@H](C)NC(=O)CCSCc3cccc(c3)CSCCNC(=O)[C@]3(C)CCCN3C2=O)cc1 [Compound 384] (cyclo(A[dA][Phe(3-CH2NH2)][Trp(5-F)]D[d(aThr)]Y(Me)[αMeP][X4]))	21000 to 50000	21000 to 50000
CC[C@@]12CCCN1C(=O)[C@H](Cc1ccc(O)cc1)NC(=O)[C@H]([C@@H](C)O)NC(=O)[C@@H]1CCCN1C(=O)[C@H](Cc1c[nH]c3ccc(F)cc13)NC(=O)[C@H](Cc1c[nH]c3ccc(F)cc13)NC(=O)CNC(=O)[C@H](CCCCN)NC(=O)CCSCc1cccc(c1)CSC[C@@H](C(N)=O)NC2=O [Compound 045] ([Mpa]KG[Trp(5-F)][Trp(5-F)]PTY[X23]C-NH2; linker 1-10 via mXylylene)	1000 to 12100	1000 to 12100
COc1ccc(C[C@@H]2NC(=O)[C@@H]3CC/C=C/CC[C@H](NC(=O)[C@H](Cc4c[nH]c5ccc(F)cc45)NC(=O)[C@H](Cc4c[nH]c5ccc(F)cc45)NC(=O)[C@@H](C)NC(=O)[C@H](CCCCN)NC(=O)CCSCc4cccc(c4)CSCCNC(=O)[C@]4(C)CCCN4C2=O)C(=O)N3)cc1 [Compound 493]	1000 to 12100	1000 to 12100
CC(=O)N[C@@H]1Cc2cn(nn2)CCC[C@@H](C(N)=O)NC(=O)[C@]2(C)CCCN2C(=O)[C@H](Cc2ccc(O)cc2)NC(=O)[C@H](Cc2cnc[nH]2)NC(=O)[C@H](CC(=O)O)NC(=O)[C@H](Cc2c[nH]c3ccc(F)cc23)NC(=O)[C@H](Cc2c[nH]c3ccc(F)cc23)NC(=O)CNC1=O [Compound 335] (Ac-[dPra]G[Trp(5-F)][Trp(5-F)]DHY[αMeP][Orn(N3)]-NH2; triazole 1-9)	1000 to 12100	1000 to 12100
COc1ccc(C[C@@H]2NC(=O)[C@H]([C@H](C)O)NC(=O)[C@@H]3C[C@H](F)CN3C(=O)[C@H](Cc3c[nH]c4ccc(F)cc34)NC(=O)[C@H](Cc3c[nH]c4ccc(F)cc34)NC(=O)[C@@H](C)NC(=O)[C@H](CCCCN)NC(=O)[C@H](NC(C)=O)CCc3cn(nn3)-c3ccc(cc3)C[C@@H](C(N)=O)NC(=O)[C@]3(C)CCCN3C2=O)cc1 [Compound 068]	0.1 to 100	0.11 to 100
CC(=O)N[C@H]1CCCCNC(=O)c2ccc(cc2)C[C@@H](C(N)=O)NC(=O)[C@]2(C)CCCN2C(=O)[C@H](Cc2ccc(O)cc2)NC(=O)[C@H](Cc2cnc[nH]2)NC(=O)[C@H](CC(=O)O)NC(=O)[C@H](Cc2c[nH]c3cc(F)ccc23)NC(=O)[C@H](Cc2c[nH]c3ccc(F)cc23)NC(=O)CNC(=O)[C@H](C)NC1=O [Compound 312] (Ac-KAG[Trp(5-F)][Trp(6-F)]DHY[αMeP][Phe(4-COOH)]-NH2; lactam 1-10)	100 to 1000	1000 to 12100

From patent US11530244B2, “Cyclic polypeptides for PCSK9 inhibition” (priority 2018, dated 2022)
